Source: the OligoGym collection
HELM strings list units from the 5' end as sugar, base in round brackets, then linkage (d deoxyribose, r ribose, m 2'-O-methyl, p phosphodiester). Strings are as the collection lists them, not checked against the first reports. ss, as = sense and antisense strand; [lna] = locked nucleic acid (LNA); [hna] = hexitol nucleic acid; [fl2r] = 2'-fluoro

Details: siRNA
Note: test system not given here.

Point of comparison: “RNA1{r(G)p.m(C)p.r(A)p.r(G)p.r(C)p.r(A)p.r(C)p.r(G)p.r(A)p.r(C)p.r(U)p.r(U)p.r(C)p.r(U)p.r(U)p.r(C)p.r(A)p.r(A)p.r(G)p.r(U)p.r(U)}|RNA2{r(C)p.m(U)p.r(U)p.r(G)p.r(A)p.r(A)p.r(G)p.r(A)p.r(A)p.r(G)p.r(U)p.r(C)p.r(G)p.r(U)p.r(G)p.r(C)p.r(U)p.r(G)p.r(C)p.r(U)p.r(U)}$$$RNA1{StrandType:ss}|RNA2{StrandType:as}$”, target mRNA knockdown 62.7%. Against it:
- RNA1{r(G)p.[fl2r](C)p.r(A)p.r(G)p.[fl2r](C)p.r(A)p.[fl2r](C)p.r(G)p.r(A)p.[fl2r](C)p.[fl2r](U)p.[fl2r](U)p.[fl2r](C)p.[fl2r](U)p.[fl2r](U)p.[fl2r](C)p.r(A)p.r(A)p.r(G)p.r(T)p.r(T)}|RNA2{[fl2r](C)p.[fl2r](U)p.[fl2r](U)p.r(G)p.r(A)p.r(A)p.r(G)p.r(A)p.r(A)p.r(G)p.[fl2r](U)p.[fl2r](C)p.r(G)p.[fl2r](U)p.r(G)p.[fl2r](C)p.[fl2r](U)p.r(G)p.[fl2r](C)p.r(T)p.r(T)}$$$RNA1{StrandType:ss}|RNA2{StrandType:as}$ — higher, 83%
- RNA1{r(G)p.[fl2r](C)p.r(A)p.r(G)p.[fl2r](C)p.r(A)p.[fl2r](C)p.r(G)p.r(A)p.[fl2r](C)p.[fl2r](U)p.[fl2r](U)p.[fl2r](C)p.[fl2r](U)p.[fl2r](U)p.[fl2r](C)p.r(A)p.r(A)p.r(G)p.r(T)p.r(T)}|RNA2{r(C)p.r(U)p.r(U)p.r(G)p.r(A)p.r(A)p.r(G)p.r(A)p.r(A)p.r(G)p.r(U)p.r(C)p.r(G)p.r(U)p.r(G)p.r(C)p.r(U)p.r(G)p.r(C)p.r(T)p.r(T)}$$$RNA1{StrandType:ss}|RNA2{StrandType:as}$ — higher, 92%
- RNA1{r(G)p.[hna](A)p.r(C)p.r(G)p.r(U)p.r(A)p.r(A)p.[hna](A)p.r(C)p.r(G)p.r(G)p.r(C)p.r(C)p.[hna](A)p.r(C)p.r(A)p.[hna](A)p.r(G)p.r(U)p.r(U)p.r(C)}|RNA2{[fl2r](A)p.m(C)p.[fl2r](U)p.m(U)p.[fl2r](G)p.m(U)p.[fl2r](G)p.m(G)p.[fl2r](C)p.m(C)p.[fl2r](G)p.m(U)p.[fl2r](U)p.m(U)p.[fl2r](A)p.m(C)p.[fl2r](G)p.m(U)p.[fl2r](C)p.m(G)p.[fl2r](C)}$$$RNA1{StrandType:ss}|RNA2{StrandType:as}$ — lower, 7.8%
- RNA1{r(G)p.[hna](A)p.r(C)p.r(G)p.r(U)p.r(A)p.r(A)p.[hna](A)p.r(C)p.r(G)p.r(G)p.r(C)p.r(C)p.[hna](A)p.r(C)p.r(A)p.[hna](A)p.r(G)p.r(U)p.r(U)p.r(C)}|RNA2{r(A)p.m(C)p.r(U)p.r(U)p.r(G)p.r(U)p.r(G)p.r(G)p.r(C)p.r(C)p.r(G)p.r(U)p.r(U)p.r(U)p.r(A)p.r(C)p.r(G)p.r(U)p.r(C)p.r(G)p.r(C)}$$$RNA1{StrandType:ss}|RNA2{StrandType:as}$ — lower, 54.2%
- RNA1{r(G)p.[hna](A)p.r(C)p.r(G)p.r(U)p.r(A)p.r(A)p.[hna](A)p.r(C)p.r(G)p.r(G)p.r(C)p.r(C)p.[hna](A)p.r(C)p.r(A)p.[hna](A)p.r(G)p.r(U)p.r(U)p.r(C)}|RNA2{r(A)p.r(C)p.[lna](T)p.r(U)p.r(G)p.[lna](T)p.r(G)p.r(G)p.r(C)p.r(C)p.r(G)p.r(U)p.r(U)p.[lna](T)p.r(A)p.r(C)p.r(G)p.[lna](T)p.r(C)p.[lna](G)p.[lna](C)}$$$RNA1{StrandType:ss}|RNA2{StrandType:as}$ — lower, 3.6%
- RNA1{r(G)p.[hna](A)p.r(C)p.r(G)p.r(U)p.r(A)p.r(A)p.[hna](A)p.r(C)p.r(G)p.r(G)p.r(C)p.r(C)p.[hna](A)p.r(C)p.r(A)p.[hna](A)p.r(G)p.r(U)p.r(U)p.r(C)}|RNA2{r(A)p.r(C)p.r(U)p.r(U)p.r(G)p.r(U)p.r(G)p.r(G)p.r(C)p.r(C)p.r(G)p.r(U)p.r(U)p.r(U)p.r(A)p.r(C)p.r(G)p.r(U)p.[lna](C)p.[lna](G)p.r(C)}$$$RNA1{StrandType:ss}|RNA2{StrandType:as}$ — higher, 79.1%
- RNA1{r(G)p.[hna](A)p.r(C)p.r(G)p.r(U)p.r(A)p.r(A)p.[hna](A)p.r(C)p.r(G)p.r(G)p.r(C)p.r(C)p.[hna](A)p.r(C)p.r(A)p.[hna](A)p.r(G)p.r(U)p.r(U)p.r(C)}|RNA2{r(A)p.r(C)p.r(U)p.r(U)p.r(G)p.r(U)p.r(G)p.r(G)p.r(C)p.r(C)p.r(G)p.r(U)p.r(U)p.r(U)p.r(A)p.r(C)p.r(G)p.r(U)p.r(C)p.r(G)p.r(C)}$$$RNA1{StrandType:ss}|RNA2{StrandType:as}$ — higher, 84.9%
- RNA1{r(G)p.m(C)p.r(A)p.r(A)p.r(G)p.r(U)p.r(G)p.r(G)p.r(C)p.r(A)p.r(A)p.r(G)p.r(A)p.r(G)p.r(G)p.r(A)p.r(U)p.m(U)p.r(A)p.r(T)p.r(T)}|RNA2{m(U)p.r(A)p.r(A)p.r(U)p.r(C)p.r(C)p.r(U)p.r(C)p.r(U)p.m(U)p.r(G)p.r(C)p.m(C)p.r(A)p.r(C)p.r(U)p.m(U)p.r(G)p.r(C)p.r(T)p.r(T)}$$$RNA1{StrandType:ss}|RNA2{StrandType:as}$ — higher, 68%
- RNA1{r(G)p.m(C)p.r(A)p.r(G)p.r(A)p.r(G)p.r(A)p.r(A)p.m(U)p.m(C)p.m(U)p.r(A)p.m(C)p.m(C)p.m(U)p.m(U)p.m(U)p.m(C)p.m(C)p.r(T)p.r(T)}|RNA2{r(G)p.r(G)p.r(A)p.r(A)p.r(A)p.r(G)p.r(G)p.m(U)p.r(A)p.r(G)p.r(A)p.m(U)p.m(U)p.m(C)p.m(U)p.m(C)p.m(U)p.r(G)p.m(C)p.r(T)p.r(T)}$$$RNA1{StrandType:ss}|RNA2{StrandType:as}$ — lower, 13%
- RNA1{r(G)p.m(C)p.r(A)p.r(G)p.r(A)p.r(G)p.r(A)p.r(A)p.r(U)p.r(C)p.m(U)p.r(A)p.r(C)p.r(C)p.r(U)p.r(U)p.r(U)p.r(C)p.r(C)p.r(T)p.r(T)}|RNA2{r(G)p.r(G)p.r(A)p.r(A)p.r(A)p.r(G)p.r(G)p.m(U)p.r(A)p.r(G)p.r(A)p.r(U)p.r(U)p.r(C)p.r(U)p.r(C)p.m(U)p.r(G)p.r(C)p.r(T)p.r(T)}$$$RNA1{StrandType:ss}|RNA2{StrandType:as}$ — higher, 75%
- RNA1{r(G)p.m(C)p.r(A)p.r(G)p.r(C)p.r(A)p.r(C)p.r(G)p.r(A)p.r(C)p.r(U)p.r(U)p.r(C)p.r(U)p.r(U)p.r(C)p.r(A)p.r(A)p.r(G)p.r(U)p.r(U)}|RNA2{r(C)p.r(U)p.r(U)p.r(G)p.r(A)p.r(A)p.r(G)p.r(A)p.r(A)p.r(G)p.r(U)p.r(C)p.r(G)p.r(U)p.r(G)p.r(C)p.r(U)p.r(G)p.r(C)p.r(U)p.r(U)}$$$RNA1{StrandType:ss}|RNA2{StrandType:as}$ — higher, 71.7%
- RNA1{r(G)p.m(C)p.r(A)p.r(G)p.r(C)p.r(A)p.r(C)p.r(G)p.r(A)p.r(C)p.r(U)p.r(U)p.r(C)p.r(U)p.r(U)p.r(C)p.r(A)p.r(A)p.r(G)p.r(U)p.r(U)}|RNA2{r(U)p.[fl2r](U)p.r(C)p.r(G)p.r(U)p.r(C)p.r(G)p.r(U)p.r(G)p.r(C)p.r(U)p.r(G)p.r(A)p.r(A)p.r(G)p.r(A)p.r(A)p.r(G)p.r(U)p.r(U)p.r(C)}$$$RNA1{StrandType:ss}|RNA2{StrandType:as}$ — higher, 77.2%
- RNA1{r(G)p.m(U)p.r(A)p.r(C)p.r(U)p.r(C)p.m(U)p.r(G)p.r(A)p.m(U)p.r(G)p.r(A)p.r(G)p.r(G)p.r(A)p.r(A)p.r(G)p.r(A)p.r(G)p.r(T)p.r(T)}|RNA2{r(C)p.r(U)p.r(C)p.r(U)p.r(U)p.r(C)p.r(C)p.r(U)p.m(C)p.r(A)p.r(U)p.m(C)p.r(A)p.r(G)p.r(A)p.r(G)p.r(U)p.m(A)p.r(C)p.r(T)p.r(T)}$$$RNA1{StrandType:ss}|RNA2{StrandType:as}$ — higher, 68%
- RNA1{r(G)p.m(U)p.r(A)p.r(C)p.r(U)p.r(C)p.r(U)p.r(G)p.r(A)p.r(U)p.r(G)p.r(A)p.r(G)p.r(G)p.r(A)p.r(A)p.r(G)p.r(A)p.r(G)p.r(T)p.r(T)}|RNA2{r(C)p.r(U)p.r(C)p.r(U)p.r(U)p.r(C)p.r(C)p.r(U)p.r(C)p.r(A)p.r(U)p.r(C)p.r(A)p.r(G)p.r(A)p.r(G)p.r(U)p.r(A)p.r(C)p.r(T)p.r(T)}$$$RNA1{StrandType:ss}|RNA2{StrandType:as}$ — higher, 69%
- RNA1{r(G)p.m(U)p.r(A)p.r(U)p.r(C)p.r(C)p.r(G)p.r(A)p.r(A)p.m(G)p.m(A)p.r(C)p.r(G)p.r(A)p.r(A)p.r(G)p.r(C)p.m(U)p.r(A)p.r(T)p.r(T)}|RNA2{m(U)p.r(A)p.r(G)p.r(C)p.r(U)p.r(U)p.r(C)p.r(G)p.r(U)p.r(C)p.r(U)p.r(U)p.r(C)p.r(G)p.r(G)p.r(A)p.m(U)p.r(A)p.r(C)p.r(T)p.r(T)}$$$RNA1{StrandType:ss}|RNA2{StrandType:as}$ — higher, 92%
- RNA1{r(G)p.r(A)p.m(C)p.r(A)p.r(A)p.r(G)p.r(G)p.r(G)p.r(A)p.r(A)p.r(G)p.r(G)p.r(U)p.m(U)p.r(A)p.r(G)p.r(C)p.r(C)p.r(U)p.r(T)p.r(T)}|RNA2{r(A)p.r(G)p.r(G)p.r(C)p.m(U)p.r(A)p.r(A)p.r(C)p.r(C)p.r(U)p.r(U)p.r(C)p.r(C)p.r(C)p.r(U)p.m(U)p.r(G)p.r(U)p.r(C)p.r(T)p.r(T)}$$$RNA1{StrandType:ss}|RNA2{StrandType:as}$ — higher, 68%
- RNA1{r(G)p.r(A)p.m(U)p.r(A)p.r(C)p.r(U)p.r(U)p.r(C)p.m(U)p.r(G)p.r(G)p.r(U)p.r(U)p.r(C)p.r(C)p.r(C)p.r(U)p.r(C)p.r(C)p.r(T)p.r(T)}|RNA2{r(G)p.r(G)p.r(A)p.r(G)p.r(G)p.r(G)p.r(A)p.r(A)p.r(C)p.m(C)p.r(A)p.r(G)p.r(A)p.r(A)p.r(G)p.m(U)p.r(A)p.r(U)p.r(C)p.r(T)p.r(T)}$$$RNA1{StrandType:ss}|RNA2{StrandType:as}$ — lower, 45%
- RNA1{r(G)p.r(A)p.m(U)p.r(A)p.r(C)p.r(U)p.r(U)p.r(C)p.r(U)p.r(G)p.r(G)p.r(U)p.r(U)p.r(C)p.r(C)p.r(C)p.r(U)p.r(C)p.r(C)p.r(T)p.r(T)}|RNA2{r(G)p.r(G)p.r(A)p.r(G)p.r(G)p.r(G)p.r(A)p.r(A)p.r(C)p.r(C)p.r(A)p.r(G)p.r(A)p.r(A)p.r(G)p.m(U)p.r(A)p.r(U)p.r(C)p.r(T)p.r(T)}$$$RNA1{StrandType:ss}|RNA2{StrandType:as}$ — lower, 46%
- RNA1{r(G)p.r(A)p.m(U)p.r(A)p.r(G)p.r(G)p.r(A)p.r(A)p.r(G)p.r(G)p.r(G)p.m(G)p.r(C)p.r(U)p.r(U)p.m(C)p.r(A)p.r(G)p.r(C)p.r(T)p.r(T)}|RNA2{r(G)p.r(C)p.m(U)p.r(G)p.r(A)p.r(A)p.r(G)p.r(C)p.r(C)p.r(C)p.r(C)p.r(U)p.r(U)p.r(C)p.r(C)p.m(U)p.r(A)p.r(U)p.r(C)p.r(T)p.r(T)}$$$RNA1{StrandType:ss}|RNA2{StrandType:as}$ — lower, 42%
